The values that follow come from patent publication US20120220571A1, “HIV INTEGRASE INHIBITORS” (priority 2009, published 2012).

Broadly, the IC50 is the midpoint of a concentration-inhibition curve.

One assay deals with T1, HIV-1 integrase (Human immunodeficiency virus type 1 group M subtype B, UniProt P04585).
T1 construct: Strand Transfer Catalyzed by Recombinant Integrase
The experiment in a line: HIV integrase assay: strand transfer catalyzed by recombinant integrase. The settings on record: inhibition of strand transfer activity. In kind it is biochemical. As to the method:
Assays for the strand transfer activity of HIV-1 integrase were conducted in accordance with WO 02/30930 for recombinant integrase. […] For example, the compounds prepared in Examples 1 to 4 were tested in the integrase assay and found to have the IC50 values in Table B.
Further description on conducting the assay using preassembled complexes is found in Wolfe, A. L. et al., J. Virol. 1996, 70: 1424-1432, Hazuda et al., J. Virol. 1997, 71: 7005-7011; Hazuda et al., Drug Design and Discovery 1997, 15: 17-24; and Hazuda et al., Science 2000, 287: 646-650.

A further assay deals with HIV. The experiment in a line: Inhibition of acute HIV infection, single cycle infectivity ("vertical") assay in HeLa P4-2 cells. In kind it is cell-based. The settings on record: Human immunodeficiency virus 1, IIIB / NL43, HeLaP4-2. The procedure: An assay for measuring the inhibition of acute HIV infection with HeLa P4-2 cells in a single cycle infectivity assay (alternatively referred to as the “vertical” assay) was conducted in accordance with Joyce, J. G., et al., J. Biol. Chem. 2002, 277, 45811, Hazuda, D. J. et al., Science 2000, 287, 646, and Kimpton, J. et al, J. Virol. 1992, 66, 2232. Infectious virus was produced by transfecting 293T cells with HIV proviral DNA in which the integrase gene was derived from a IIIB isolate and the remainder of the HIV genome was derived from the NL4-3 isolate. […] For example, the compounds of Examples 1 to 4 were tested in this assay and found to have the IC50 values in Table C.

Take `O=C1c2c(occ(O)c2=O)CCN1Cc1ccc(F)cc1` [Example 1, 6-(4-Fluorobenzyl)-3-hydroxy-7,8-dihydro-4H-pyrano[3,2-c]pyridine-4,5(6H)-dione]: the concentration for half-maximal inhibition (IC50) on HIV-1 integrase came to 3.2 µM; with HIV it was 43 µM.

Regarding `C=CCc1c(O)c(=O)c2c(n1C)CCN(Cc1ccc(F)cc1)C2=O` [Example 2, 2-Allyl-6-(4-fluorobenzyl)-3-hydroxy-1-methyl-7,8-dihydro-1,6-naphthyridine-4,5(1H,6H)-dione], the figures for the IC50 at HIV-1 integrase and in the assay on HIV were 0.1 µM and 5 µM, respectively.

Take `C=CCCn1c2c(c(=O)c(O)c1C(C)C=C)C(=O)N(Cc1ccc(F)cc1)CC2` (centres unmarked) [Example 3, 1-But-3-en-1-yl-6-(4-fluorobenzyl)-3-hydroxy-2-(1-methylprop-2-en-1-yl)-7,8-dihydro-1,6-napthyridine-4,5(1H,6H)-dione]: the IC50 at HIV-1 integrase was 0.1 µM; in the assay on HIV it was 1 µM.

`CC1CCCCn2c3c(c(=O)c(O)c21)C(=O)N(Cc1ccc(F)cc1)CC3` (centres unmarked) [Example 4, 3-(4-Fluorobenzyl)-6-hydroxy-7-methyl-2,3,8,9,10,11-hexahydroazepino[1,2-a]-1,6-napthyridine-4,5(1H,7H)-dione]: the IC50 was determined as 0.12 µM on HIV-1 integrase and 5 µM with HIV.
